Assay results as given in US20120065195A1, “COMPOUNDS FOR TREATING NEURODEGENERATIVE DISEASES” (priority 2010, published 2012).

target: T1, BACE1 (Homo sapiens, UniProt P56817); experiment: Cellular BACE1 Inhibition Assay (in vitro cellular Amyloidβ 1-40 production assay, HTRF immunoassay); assay type: cell-based
T1 construct: endogenous in cells; host or cells: HEK-293 (stably transfected with wild type APP695 only)
Protocol: The BACE inhibition properties of the compounds of the invention may be determined by the following in vitro cellular Amyloidβ 1-40 production assay.
Inhibition of Amyloidβ1-40 production was determined by incubating cells with compound for 48 hours and quantifying the level of Amyloidβ 1-40 using an HTRF immunoassay.
Materials and Methods: HEK-293 cells stably transfected with a DNA construct containing the coding sequence for the wild type APP695 sequence were grown in DMEM supplemented with 10% fetal bovine serum, penicillin/streptomycin and 150 μg/mL G418. Cells were plated in 96-well plates at 35,000 cells/well and allowed to attach for 8-12 hours. Media was changed to DMEM supplemented with 10% fetal bovine serum, penicillin/streptomycin 15 minutes prior to compound addition. Diluted compounds were then added at a final concentration of 0.5% DMSO. After 48 hours, 4 μL of media from each well was added to a corresponding well of a 384 well plate (Perkin Elmer Cat#6008280) containing the HTRF reagents. HTRF reagents were obtained from the CisBio Amyloidβ 1-40 peptide assay kit (Cat#62B40PEC) and were prepared as follows anti-peptide β (1-40)-Cryptate and anti-peptide β (1-40)-XL655 were stored in 2 plate aliquots at −80° C. Diluent and Reconstitution buffer were stored at 4° C. Aliquots of the two antibodies were diluted 1:100 with Reconstitution buffer, and this mixture was diluted 1:2 with Diluent. 12 μL of the reagent mixture was added to the required wells of the 384 well assay plate. The assay plate was incubated at 4° C. for 17 hours and then analyzed for fluorescence at 665 and 620 nm.

T1 sequence (P56817 46-501): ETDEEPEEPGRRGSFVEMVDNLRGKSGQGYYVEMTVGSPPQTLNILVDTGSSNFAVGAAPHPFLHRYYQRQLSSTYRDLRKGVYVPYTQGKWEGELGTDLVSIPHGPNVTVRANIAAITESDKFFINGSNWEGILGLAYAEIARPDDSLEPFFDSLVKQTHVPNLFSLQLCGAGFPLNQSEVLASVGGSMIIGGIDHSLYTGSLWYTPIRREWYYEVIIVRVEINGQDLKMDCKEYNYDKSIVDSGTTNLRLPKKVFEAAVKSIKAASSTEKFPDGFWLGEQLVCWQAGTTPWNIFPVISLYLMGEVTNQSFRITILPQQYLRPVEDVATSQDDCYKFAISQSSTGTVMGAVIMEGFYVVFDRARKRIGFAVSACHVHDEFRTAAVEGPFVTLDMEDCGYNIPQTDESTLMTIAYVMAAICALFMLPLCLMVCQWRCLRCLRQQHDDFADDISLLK

First: CN1C(=O)C2(CC3(CCOCC3)Cc3ccc(-c4cc(F)cc(Cl)c4)cc32)N=C1N (stereo not drawn) [Example 42, 2-amino-7″-(3-fluoro-5-chlorophenyl)-1-methyl-2′,3′,5′,6′-tetrahydro-3″,4″-dihydro-2″H-dispiro[imidazol-4,1″-naphthalen-3″,4′-pyran]-5(1H)-one]
Second: CN1C(=O)C2(CC3(CCOCC3)Cc3ccc(-c4cncnc4)cc32)N=C1N (stereo not drawn) [Example 74, 2-amino-7″-(pyrimidin-5-yl)-1-methyl-2′,3′,5′,6′-tetrahydro-3″,4″-dihydro-2″H-dispiro[imidazol-4,1″- naphthalen-3″,4′-pyran]-5(1H)-one]
The IC50 of the first is 2.1-fold lower: 121 nM for the first, 258 nM for the second. The first is the more potent here.

Compared with CN1C(=O)C2(N=C1N)c1cc(-c3cccc(C#N)c3)ccc1CCC2(C)C (stereo not drawn) [Example 28, 3-(2-amino-1,2′,2′-trimethyl-5-oxo-1,3′,4′,5-tetrahydro-2′H-spiro[imidazole-4,1′-naphthalene]-7′-yl)benzonitrile], CN1C(=O)C2(N=C1N)c1cc(-c3cncc(Cl)c3)ccc1CCC2(C)C (stereo not drawn) [Example 26, 2-amino-7′-(5-chloropyridin-3-yl)-1,2′,2′-trimethyl-3′,4′-dihydro-2′H-spiro[imidazole-4,1′-naphthalen]-5(1H)-one] is 4.7-fold lower in IC50: 92.5 nM for the first, 19.7 nM for the second. The second is the more potent here.

CN1C(=O)[C@]2(N=C1N)c1cc(-c3cncnc3)ccc1C[C@]1(C)CC12 (single isomer, unassigned) [Example 155] and CN1C(=O)C2(N=C1N)c1cc(-c3cncnc3)ccc1CC(C)(C)C2F (stereo not drawn) [Example 157, 2-amino-2′-fluoro-1,3′,3′-trimethyl-7′-(pyrimidin-5-yl)-3′,4′-dihydro-2′H-spiro[imidazole-4,1′-naphthalen]-5(1H)-one] are within 1.5-fold of each other in IC50: 27.1 nM for the first, 39.6 nM for the second.

Compared with CN1C(=O)C2(CC(C)(C)Cc3ccc(-c4cccc(Cl)c4)nc32)N=C1N (stereo not drawn) [Example 20, 2-amino-2′-(3-chlorophenyl)-1,6′,6′-trimethyl-6′,7′-dihydro-5′H-spiro[imidazole-4,8′-quinolin]-5(1H)-one], COc1ccnc(-c2ccc3c(c2)C2(CC(C)(C)C3)N=C(N)N(C)C2=O)c1 (stereo not drawn) [Example 137, 2-amino-7′-(4-methoxypyridin-2-yl)-1,3′,3′-trimethyl-3′,4′-dihydro-2′H-spiro[imidazole-4,1′-naphthalen]-5(1H)-one] is 230-fold lower in IC50: 1430 nM for the first, 6.1 nM for the second. The second is the more potent here.

Going from CN1C(=O)[C@@]2(N=C1N)c1cc(-c3cccc(Cl)c3)ccc1CC[C@H]2CC1CCN(CC(F)F)CC1 [Example 32, (1′S,2′S)-2-amino-7′-(3-chlorophenyl)-2′-((1-(2,2-difluoroethyl)piperidin-4-yl)methyl)-1-methyl-3′,4′-dihydro-2′H-spiro[imidazole-4,1′-naphthalen]-5(1H)-one] to CN1C(=O)[C@@]2(N=C1N)c1cc(-c3cccc(Cl)c3)ccc1CC[C@@H]2CC1CCN(CC(F)F)CC1 [Example 62, (1′S,2′R)-2-amino-7′-(3-chlorophenyl)-2′-((1-(2,2-difluoroethyl)piperidin-4-yl)methyl)-1-methyl-3′,4′-dihydro-2′H-spiro[imidazole-4,1′-naphthalen]-5(1H)-one], the IC50 rises from 48.6 nM to 306 nM (6.3-fold). The first is the more potent here.

Going from CN1C(=O)[C@]2(C[C@@](C)(CO)Cc3ccc(-c4cc(F)cc(Cl)c4)cc32)N=C1N [Example 144, (1′R,3′S)-2-amino-7′-(3-chloro-5-fluorophenyl)-3′-(hydroxymethyl)-1,3′-dimethyl-3′,4′-dihydro-2′H-spiro[imidazole-4,1′-naphthalen]-5(1H)-one] to CC1CCc2ccc(-c3cc(F)cc(Cl)c3)cc2C12N=C(N)N(C)C2=O (stereo not drawn) [Example 56, 2-amino-7′-(3-chloro-5-fluorophenyl)-1,2′-dimethyl-3′,4′-dihydro-2′H-spiro[imidazole-4,1′-naphthalen]-5(1H)-one], the IC50 rises from 3.3 nM to 361 nM (110-fold). The first is the more potent here.

First: Cc1nc(C(=O)Nc2ccc3c(c2)C2(COC(N)=N2)CC(C)(C)C3)co1 (stereo not drawn) [Example 90, N-(2′-amino-3-dimethyl-3,4-dihydro-2H,5′H-spiro[naphthalene-1,4′-oxazole]-7-yl)-2-methyloxazole-4-carboxamide]
Second: CC1(C)Cc2ccc(NC(=O)c3ccc(Br)cn3)cc2C2(COC(N)=N2)C1 (stereo not drawn) [Example 88, N-(2′-amino-3,3-dimethyl-3,4-dihydro-2H,5′H-spiro[naphthalene-1,4′-oxazole]-7-yl)-5-bromopicolinamide]
The IC50 of the first is 2.8-fold lower: 16.8 nM for the first, 46.3 nM for the second. The first is the more potent here.

Going from CN1C(=O)C2(CC(C)(C)Cc3ccc(C#CCCCC#N)cc32)N=C1N (stereo not drawn) [Example 18, 6-(2-amino-1,3′,3′-trimethyl-5-oxo-1,3′,4′,5-tetrahydro-2′H-spiro[imidazole-4,1′-naphthalene]-7′-yl)hex-5-ynenitrile] to CN1C(=O)C2(CC(C)(C)Cc3ccc(-c4cncc(C#N)c4)cc32)N=C1N (stereo not drawn) [Example 134, 5-(2-amino-1,3′,3′-trimethyl-5-oxo-1,3′,4′,5-tetrahydro-2′H-spiro[imidazole-4,1′-naphthalene]-7′-yl)nicotinonitrile], the IC50 falls from 37.4 nM to 7.9 nM (4.7-fold). The second is the more potent here.

CN1C(=O)C2(CC3(CCOCC3)Cc3ccc(/C=C/C(C)(C)C)cc32)N=C1N (stereo not drawn) [Example 45, (E)-2-amino-7″-(3,3-dimethylbut-1-enyl)-1-methyl-2′,3′,5′,6′-tetrahydro-3″,4″-dihydro-2″H-dispiro[imidazol-4,1″-naphthalen-3″,4′-pyran]-5(1H)-one] and CN1C(=O)C2(CC(C)(C)Cc3ccc(/C=C/C4CC4)cc32)N=C1N (stereo not drawn) [Example 15, (E)-2-amino-7′-(2-cyclopropylvinyl)-1,3′,3′-trimethyl-3′,4′-dihydro-2′H-spiro[imidazole-4,1′-naphthalen]-5(1H)-one] are within 1.5-fold of each other in IC50: 69.6 nM for the first, 76.7 nM for the second.

CN1C(=O)C2(CC3(CCC3)Cc3ccc(-c4cccc(Cl)c4)cc32)N=C1N (stereo not drawn) [Example 37, 2-amino-7′-(3-chlorophenyl)-1-methyl-5-oxo-3′,4′-dihydro-2′H-dispiro[imidazol-4,1′-naphthalen-3′,1″-cyclobutyl]-5 (1H)-one] and CN1C(=O)C2(CCCc3ccc(-c4cccc(Cl)c4)cc32)N=C1N (stereo not drawn) [Example 24, 2-amino-7′-(3-chlorophenyl)-1-methyl-3′,4′-dihydro-2′H-spiro[imidazole-4,1′-naphthalen]-5(1H)-one] are within 1.5-fold of each other in IC50: 241 nM for the first, 189 nM for the second.

Compared with CN1C(=O)C2(CC(C)(C)Cc3ccc(-c4cc(C(F)(F)F)ccn4)cc32)N=C1N (stereo not drawn) [Example 139, 2-amino-1,3′,3′-trimethyl-7′-(4-(trifluoromethyl)pyridin-2-yl)-3′,4′-dihydro-2′H-spiro[imidazole-4,1′-naphthalen]-5(1H)-one], Cc1cncc(-c2ccc3c(c2)C2(CC(C)(C)C3)N=C(N)N(C)C2=O)c1 (stereo not drawn) [Example 131, 2-amino-1,3′,3′-trimethyl-7′-(5-methylpyridin-3-yl)-3′,4′-dihydro-2′H-spiro[imidazole-4,1′-naphthalen]-5 (1H)-one] is 2.9-fold lower in IC50: 14.8 nM for the first, 5.1 nM for the second. The second is the more potent here.

Going from Cc1cnc(F)c(-c2ccc3c(c2)C2(CC(C)(C)C3)N=C(N)N(C)C2=O)c1 (stereo not drawn) [Example 135, 2-amino-7′-(2-fluoro-5-methylpyridin-3-yl)-1,3′,3′-trimethyl-3′,4′-dihydro-2′H-spiro[imidazole-4,1′-naphthalen]-5(1H)-one] to CN1C(=O)C2(N=C1N)c1cc(-c3cccnc3F)ccc1CC(C)(C)C2F (stereo not drawn) [Example 156, 2-amino-2′-fluoro-7′-(2-fluoropyridin-3-yl)-1,3′,3′-trimethyl-3′,4′-dihydro-2′H-spiro[imidazole-4,1′-naphthalen]-5(1H)-one], the IC50 rises from 8.1 nM to 17.2 nM (2.1-fold). The first is the more potent here.

CN1C(=O)C2(N=C1N)c1cc(-c3cccc(Cl)c3)ccc1CCC21CCOCC1 (stereo not drawn) [Example 35, 2-amino-7″-(3-chlorophenyl)-1-methyl-2′,3′,5′,6′-tetrahydro-3″,4″-dihydro-2″H-dispiro[midazol-4,1″-naphthalen-2″,4′-pyran]-5(1H)-one] and CC1CCc2ccc(-c3cccc(Cl)c3)cc2C12N=C(N)N(C)C2=O (stereo not drawn) [Example 21, 2-amino-7′-(3-chlorophenyl)-1,2′-dimethyl-3′,4′-dihydro-2′H-spiro[imidazole-4,1′-naphthalen]-5(1H)-one] are within 1.5-fold of each other in IC50: 192 nM for the first, 226 nM for the second.

First: Cc1cc(C(=O)Nc2ccc3c(c2)C2(CCSC(N)=N2)CC(C)(C)C3)c(C)o1 (stereo not drawn) [Example 95, N-(2′-amino-3,3-dimethyl-3,4,5′,6′-tetrahydro-2H-spiro[naphthalene-1,4′-[1,3]thiazine]-7-yl)-2,5-dimethylfuran-3-carboxamide]
Second: CN1C(=O)C2(N=C1N)c1cc(-c3cncnc3)ccc1CCC2(C)C (stereo not drawn) [Example 27, 2-amino-1,2′,2′-trimethyl-7′-(pyrimidin-5-yl)-3′,4′-dihydro-TH-spiro[imidazole-4,1′-naphthalen]-5(1H)-one]
The IC50 of the first is 27-fold higher: 276 nM for the first, 10.1 nM for the second.

First: CN1C(=O)C2(N=C1N)c1cc(-c3cncnc3)ccc1CC(C)(C)C2(F)F (stereo not drawn) [Example 160, 2-amino-2′,2′-difluoro-1,3′,3′-trimethyl-7′-(pyrimidin-5-yl)-3′,4′-dihydro-2′H-spiro[imidazole-4,1′-naphthalen]-5(1H)-one]
Second: CN1C(=O)[C@]2(C[C@@](C)(Cc3ccccc3)Cc3ccc(-c4cncc(Cl)c4)cc32)N=C1N [Example 147, (1′R,3′S)-2-amino-3′-benzyl-7′-(5-chloropyridin-3-yl)-1,3′-dimethyl-3′,4′-dihydro-2′H-spiro[imidazole-4,1′-naphthalen]-5(1H)-one]
The IC50 of the first is 67-fold higher: 87.3 nM for the first, 1.3 nM for the second.
